Molecules are shown by their SMILES.

The target of the assay is T1, HSA (Homo sapiens, UniProt P02768).
T1 construct: purchased Sigma-Aldrich
Description: FRET parameters between HSA donor fluorophores and MCD acceptors. Particulars: MCD acceptor. The assay is classed as binding. From the text:
Quenching of intrinsic fluorescence of HSA can occur, in particular, due to energy transfer (Förster resonance energy transfer, FRET) from protein donor fluorophores to MCD acceptor molecules. In the MCD–HSA system, complexation brings acceptors and donors closer together and facilitates FRET. FRET is likely because HSA fluorescence and MCD absorption spectra overlap. For MCD and HSA, the overlap integrals J (see Equation (S7) in Supplementary Materials) were obtained in the order of 2.0–7.0 × 10^15 mol^−1 cm^−1 nm^4 (for MCD 4 see Figure S15 in Supplementary Materials). […] This is probably due to the strong aggregation of MCD 3 in the presence of HSA, which decreases the concentration of monomeric dye molecules active in fluorescence quenching (see Supplementary Materials, Figure S8). […] But as the dye concentration increases, its aggregation is built up steeply, and the fluorescence quenching diminishes.
The parameters of FRET between albumin donor chromophores (tyrosine and tryptophan amino acid residues of HSA) and acceptors (MCD 1–4 molecules) were determined from the spectral fluorescent data using the standard formulae for the spectral overlap integral J (M^−1 cm^−1 nm^4) and critical radius of energy transfer R0 (see Supplementary Material, Equations (S7) and (S8), respectively). […]

T1 sequence (P02768 25-609): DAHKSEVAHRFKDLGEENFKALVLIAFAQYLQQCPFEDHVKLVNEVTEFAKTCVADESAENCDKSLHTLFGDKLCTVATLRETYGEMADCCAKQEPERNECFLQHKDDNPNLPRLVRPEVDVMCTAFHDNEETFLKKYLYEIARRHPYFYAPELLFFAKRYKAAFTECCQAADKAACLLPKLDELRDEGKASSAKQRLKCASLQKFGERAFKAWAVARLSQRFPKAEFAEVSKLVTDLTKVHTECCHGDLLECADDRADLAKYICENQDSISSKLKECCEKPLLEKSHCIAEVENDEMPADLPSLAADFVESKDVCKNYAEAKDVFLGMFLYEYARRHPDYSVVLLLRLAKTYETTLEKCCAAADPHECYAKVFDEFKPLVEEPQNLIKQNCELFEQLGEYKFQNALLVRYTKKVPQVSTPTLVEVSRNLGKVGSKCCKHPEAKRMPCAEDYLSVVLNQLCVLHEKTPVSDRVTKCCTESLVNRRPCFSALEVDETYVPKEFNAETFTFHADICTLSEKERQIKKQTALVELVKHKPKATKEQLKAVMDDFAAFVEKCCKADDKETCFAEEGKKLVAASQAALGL

For the molecule `CCN1/C(=C/c2sc3ccccc3[n+]2CC)Sc2ccccc21` [MCD 3], the “R0, Förster critical radius” value is ~ 50 Å.

The values are drawn from publication PMC10531095, “Photonics of Some Monomethine Cyanine Dyes in Solutions and in Complexes with Biomolecules” (International Journal of Molecular Sciences, 2023).
